Source: patent publication US20110071094A1, “(D)-ALLOSE INDUCING PROGRAMMED CELL DEATH IN HORMONE REFRACTORY PROSTATE CANCER LINES” (INDUSTRY-ACADEMIC COOPERATION FOUDATION, GYEONGSANG …, priority 2008, published 2011)

What was measured:
Assay type in all cases: cell-based, human
Bcl-2 mRNA = assay: RT-PCR of Bcl-2 mRNA in DU145; conditions: DU145, 72 h, 0, 20 and 40 mM
Experimental: To identify the relative levels of expression of Bcl-2, Bax and Caspase 3 mRNAs after 0, 20 and 40 mM of D-allose treatments for 72 h, RT-PCR was performed. DU145 cell line (1×10^6 cells in triplicate culture plates) was harvested as mentioned above and total RNA was extracted using TRIzol reagent (Invitrogen, Carlsbad, Calif., USA) following a standard laboratory protocol. The RNA purity and concentrations were determined. Then 2 μg of total RNA was reversely transcribed to single-stranded cDNA using Oligo(dT)12-18 primer (Invitrogen, Carlsbad, Calif., USA) with M-MLV reverse transcriptase (Promega, Madison, Wis., USA). For PCR reaction, 4 μl of cDNA was reacted with 20 pmol each of the forward and reverse primers (Bioneer Corporation, Seoul, South Korea), and GoTaq® Green Master Mix […] containing PCR buffer, 25 mM magnesium chloride, 10 mM dNTP mix and Taq enzyme (Promega, Madison, Wis., USA), and amplified. […] The molecular sizes of the amplified products were determined by comparison with the molecular weight marker (100 by DNAladder; Promega, Madison, Wis., USA) run parallel with the PCR products. The densities of mRNA bands were analyzed by Molecular Analyst™, version 1.4.1 (Bio-Rad, Hercules, Calif., USA).

DU145 cell line [1] = assay: Mitochondrial Δψm by JC-1, flow cytometry; conditions: DU145, 20 and 40 mM, 24, 48 and 72 h
Experimental: Mitochondrial Δψm was measured by JC-1 mitochondrial membrane potential detection kit (Biotium Inc, Hayward, Calif., USA) according to the manufacturer's protocol. Briefly, DU145 cell line (1×10^6 cells in triplicate culture plates) was harvested after treatments with 0, 20 and 40 mM of D-allose for up to 72 h as mentioned above, stained with […] JC-1 reagent at 37° C. for 15 min and resuspended twice in 1× assay buffer. Changes in mitochondrial Δψm were measured at the single cell level by FACSCalibur flow cytometer (Becton Dickinson, San Jose, Calif., USA) under the following conditions: FL1, 511 volts; FL2, 389 volts; FL1-10.5% FL2; FL2-25.9% FL1; 488 nm argon excitation laser and 585 nm band pass filter. In total 10,000 cells were acquired for analysis by CellQuest software, version 3.0 (Becton Dickinson, San Jose, Calif., USA), and the quantification of cells with low mitochondrial Δψm as the percentage of total cell population was performed. Further, the DU145 cell line was seeded onto chamber slides with 1×10^5 cells/chamber in 500 μl of complete culture medium containing 0, 20 and 40 mM of D-allose for 72 h, permeabilized with 0.1% Triton, stained with 1×JC-1 reagent in dark, mounted with Prolong Antifade reagent (Molecular Probes, Eugene, Oreg., USA), and images (JC-1, green) were acquired by use of a fluorescence microscope (Axioplan 2, Carl Zeiss, Germany).

DU145 cell line [2] = assay: Cell viability / cell growth, MTT assay
Experimental: DU145 (human HRPC cell line, derived from a patient with brain metastasis) and PrEC (human normal prostate epithelial cell line) cell lines were obtained from Korea Cell Line Bank (KCLB, Seoul, South Korea). DU145 and PrEC cell lines were grown in triplicate culture plates containing RPMI-1640 (HyClone, Logan, Utah, USA) and Dulbecco's Modified Eagle's Medium (HyClone, Logan, Utah, USA) respectively, and kept in a humidified atmosphere containing 5% CO2 at 37° C. for 72 h. The media were supplemented with 10% heat-inactivated fetal bovine serum (HyClone, Logan, Utah, USA), 1% antibio-antimicotic solution containing 10,000 units/ml of penicillin and 10 mg/ml of streptomycin (HyClone, Logan, Utah, USA), HEPES, sodium bicarbonate, p-aminobenzoic acid and insulin (complete culture media). D-Allose was purchased from Sigma (St. Louis, Mo., USA) and dissolved at a concentration of 1 M in sterile phosphate-buffered saline (PBS), and was further sterilized by filtration. To examine the dose- and time-dependent effects, the cell lines (70-80% confluent) were treated with 0-40 mM of D-allose for up to 72 h, whereas without D-allose treated cell lines (0 mM) were considered as control. DU145 cell line was also treated with 0-40 mM of D-glucose. All the other chemicals used in the work were procured from Sigma (St. Louis, Mo., USA), unless otherwise specified.
The logarithmic growth phase of DU145 and PrEC cell lines were taken for growth assay using 3-[4,5-dimethylthiazol-2-yl]-2,5-diphenyl tetrazolium bromide (MTT). […] After incubation for the specified time at 37° C. in a humidified 5% CO2 incubator, cell viability was determined. […] To achieve solubilization of formazan crystal formed in viable cells, DMSO was added to each well, and the absorbance was recorded on a microplate reader at 595 nm wavelength. The effect of sugars on growth inhibition was assessed as percent cell viability where control cells were taken as 100% viable.

O=C[C@H](O)[C@H](O)[C@H](O)[C@H](O)CO [D-allose]
Bcl-2 mRNA expression (Bcl-2 mRNA): significantly reduced
cells with low mitochondrial Δψm (DU145 cell line [1]): appearance of a remarkable subpopulation of cells with low mitochondrial Δψm in a dose- and time-dependent manner
cell growth (MTT assay) (DU145 cell line [2]; DU145, 0-40 mM, compared to control): significant dose-dependent inhibition of cell growth
time dependence of cell growth inhibition (MTT assay) (DU145 cell line [2]; DU145, 24, 48 and 72 h): time-dependent inhibition of DU145 cell growth, which was more pronounced at 72 h post-treatment
